Reference: ChEMBL document CHEMBL3769306, “Discovery of Molecular Therapeutics for Glaucoma: Challenges, Successes, and Promising Directions” (J Med Chem, 2016)
One block for each compound: values may come before it.

How the values were obtained:
Adenosine receptor A2a [1] = biological target: T1, Adenosine receptor A2a (Homo sapiens, UniProt P29274); test: Displacement of [3H]-[…] from human recombinant adenosine A2A receptor
[2] = biological target: T2, Rho-associated protein kinase 2 (Homo sapiens, UniProt O75116); test: Inhibition of ROCK2 (unknown origin)
Adenosine receptor A3 = biological target: T3, Adenosine receptor A3 (Homo sapiens, UniProt P0DMS8); test: Antagonist activity at human adenosine A3 receptor
T3 sequence (P0DMS8 whole entry): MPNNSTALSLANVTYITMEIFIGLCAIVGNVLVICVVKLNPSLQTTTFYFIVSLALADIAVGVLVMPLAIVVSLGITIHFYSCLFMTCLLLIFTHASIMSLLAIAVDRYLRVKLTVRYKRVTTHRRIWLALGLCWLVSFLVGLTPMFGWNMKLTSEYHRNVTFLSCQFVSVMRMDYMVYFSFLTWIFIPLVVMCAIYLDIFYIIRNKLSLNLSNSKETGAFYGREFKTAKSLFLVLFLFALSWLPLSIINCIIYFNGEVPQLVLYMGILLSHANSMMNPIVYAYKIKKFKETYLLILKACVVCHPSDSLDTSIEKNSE

[3] = biological target: Rho-associated protein kinase 1 (Homo sapiens, UniProt Q13464); test: Inhibition of ROCK1 (unknown origin)
Adenosine receptor A2a [4] = biological target: T1, Adenosine receptor A2a; test: Displacement of 2-[2-(4-amino-3-[125I]iodophenyl)ethylamino]adenosine from human recombinant adenosine A2A receptor expressed in HEK293 cells; type: cell-based
[5] = biological target: T2, Rho-associated protein kinase 2; test: Inhibition of ROCK2 (unknown origin) using STK2 as substrate after 1 hr

T1 sequence (P29274 whole entry): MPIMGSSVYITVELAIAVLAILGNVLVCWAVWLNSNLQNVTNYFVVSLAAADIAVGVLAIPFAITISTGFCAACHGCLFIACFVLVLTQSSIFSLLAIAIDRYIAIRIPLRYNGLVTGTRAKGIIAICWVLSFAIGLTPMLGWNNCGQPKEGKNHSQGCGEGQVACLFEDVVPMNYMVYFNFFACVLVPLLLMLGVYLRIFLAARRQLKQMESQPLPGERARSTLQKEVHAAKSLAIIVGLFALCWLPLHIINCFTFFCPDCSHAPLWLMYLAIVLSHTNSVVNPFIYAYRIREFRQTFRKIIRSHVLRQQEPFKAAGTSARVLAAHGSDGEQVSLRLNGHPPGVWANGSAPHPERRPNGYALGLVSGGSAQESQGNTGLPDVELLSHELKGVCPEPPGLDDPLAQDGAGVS
T2 sequence (O75116 whole entry): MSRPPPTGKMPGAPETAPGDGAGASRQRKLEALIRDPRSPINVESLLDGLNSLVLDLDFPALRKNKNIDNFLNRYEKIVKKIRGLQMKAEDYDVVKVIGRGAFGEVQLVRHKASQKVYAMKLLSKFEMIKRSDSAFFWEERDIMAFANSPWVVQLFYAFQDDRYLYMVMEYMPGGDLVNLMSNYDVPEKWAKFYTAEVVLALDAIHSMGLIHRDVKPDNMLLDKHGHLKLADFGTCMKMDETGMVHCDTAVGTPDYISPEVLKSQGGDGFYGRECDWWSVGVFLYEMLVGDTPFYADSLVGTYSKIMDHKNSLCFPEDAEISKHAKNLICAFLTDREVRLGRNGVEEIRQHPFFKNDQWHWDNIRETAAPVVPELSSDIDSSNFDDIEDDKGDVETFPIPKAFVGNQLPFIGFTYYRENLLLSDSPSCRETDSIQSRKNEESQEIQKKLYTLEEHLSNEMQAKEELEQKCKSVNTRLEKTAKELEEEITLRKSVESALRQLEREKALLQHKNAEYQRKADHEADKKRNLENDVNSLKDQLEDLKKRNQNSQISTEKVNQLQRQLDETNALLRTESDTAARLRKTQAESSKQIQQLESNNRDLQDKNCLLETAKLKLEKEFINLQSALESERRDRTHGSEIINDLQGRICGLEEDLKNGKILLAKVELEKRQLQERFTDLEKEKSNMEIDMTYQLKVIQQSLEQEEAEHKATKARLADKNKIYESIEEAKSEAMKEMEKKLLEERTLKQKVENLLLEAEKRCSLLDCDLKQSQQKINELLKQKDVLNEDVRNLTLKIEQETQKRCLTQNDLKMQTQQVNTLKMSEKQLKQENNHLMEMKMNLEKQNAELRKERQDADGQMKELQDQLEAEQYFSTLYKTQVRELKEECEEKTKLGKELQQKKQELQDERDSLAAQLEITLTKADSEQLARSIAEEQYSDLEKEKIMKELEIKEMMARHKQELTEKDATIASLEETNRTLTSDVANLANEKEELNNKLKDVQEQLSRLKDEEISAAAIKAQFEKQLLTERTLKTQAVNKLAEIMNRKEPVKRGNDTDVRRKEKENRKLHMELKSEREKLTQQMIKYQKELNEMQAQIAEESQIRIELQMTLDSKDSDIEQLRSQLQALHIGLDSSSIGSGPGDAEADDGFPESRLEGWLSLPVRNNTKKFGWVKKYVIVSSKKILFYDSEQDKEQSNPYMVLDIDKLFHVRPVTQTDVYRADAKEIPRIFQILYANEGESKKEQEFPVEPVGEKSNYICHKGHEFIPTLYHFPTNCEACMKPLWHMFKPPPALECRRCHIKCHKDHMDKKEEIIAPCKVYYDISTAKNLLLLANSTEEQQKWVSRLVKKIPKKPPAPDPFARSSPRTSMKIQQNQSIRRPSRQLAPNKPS
Chain of Rho-associated protein kinase 1 (Q13464 whole entry): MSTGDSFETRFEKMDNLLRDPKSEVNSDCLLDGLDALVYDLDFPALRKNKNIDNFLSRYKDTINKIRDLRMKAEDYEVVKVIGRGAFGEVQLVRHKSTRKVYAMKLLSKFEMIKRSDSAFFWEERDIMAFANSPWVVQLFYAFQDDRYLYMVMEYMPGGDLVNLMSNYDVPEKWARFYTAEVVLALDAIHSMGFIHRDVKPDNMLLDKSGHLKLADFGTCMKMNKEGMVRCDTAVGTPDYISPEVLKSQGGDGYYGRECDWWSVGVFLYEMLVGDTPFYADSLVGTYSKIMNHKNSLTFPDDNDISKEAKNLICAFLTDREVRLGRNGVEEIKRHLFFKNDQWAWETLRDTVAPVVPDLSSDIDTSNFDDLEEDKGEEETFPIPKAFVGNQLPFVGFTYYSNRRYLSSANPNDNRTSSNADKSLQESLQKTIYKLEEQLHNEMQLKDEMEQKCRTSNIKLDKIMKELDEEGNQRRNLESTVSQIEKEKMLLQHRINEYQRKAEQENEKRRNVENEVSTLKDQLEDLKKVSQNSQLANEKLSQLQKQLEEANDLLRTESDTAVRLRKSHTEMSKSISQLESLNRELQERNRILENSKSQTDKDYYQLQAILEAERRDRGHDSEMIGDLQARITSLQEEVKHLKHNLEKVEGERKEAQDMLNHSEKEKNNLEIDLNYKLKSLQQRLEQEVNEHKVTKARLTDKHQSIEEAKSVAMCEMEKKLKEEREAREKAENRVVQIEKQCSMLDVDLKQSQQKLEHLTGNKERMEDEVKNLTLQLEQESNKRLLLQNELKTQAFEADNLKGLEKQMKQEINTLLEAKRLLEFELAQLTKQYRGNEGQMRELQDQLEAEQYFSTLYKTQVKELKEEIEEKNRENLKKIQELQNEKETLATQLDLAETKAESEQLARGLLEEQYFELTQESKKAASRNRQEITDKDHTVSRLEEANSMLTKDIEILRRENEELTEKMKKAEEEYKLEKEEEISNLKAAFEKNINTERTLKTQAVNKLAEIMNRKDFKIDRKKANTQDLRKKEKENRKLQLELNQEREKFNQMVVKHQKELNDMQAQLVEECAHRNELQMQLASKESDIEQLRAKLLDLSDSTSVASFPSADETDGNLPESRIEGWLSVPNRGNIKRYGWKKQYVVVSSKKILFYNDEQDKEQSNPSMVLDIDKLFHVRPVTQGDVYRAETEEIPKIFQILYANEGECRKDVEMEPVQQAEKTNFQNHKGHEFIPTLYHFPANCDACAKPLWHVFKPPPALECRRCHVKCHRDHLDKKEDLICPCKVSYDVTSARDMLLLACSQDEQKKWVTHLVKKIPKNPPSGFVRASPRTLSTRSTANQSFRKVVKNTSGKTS

SMILES: C[C@H]1CNCCCN1S(=O)(=O)c1cccc2cncc(F)c12
- IC50 [2]: 19 nM

SMILES: CNC(=O)[C@H]1O[C@@H](n2cnc3c(NCc4cccc(I)c4)nc(Cl)nc32)[C@H](OC(C)=O)[C@@H]1OC(C)=O
- Ki (Adenosine receptor A3): 910 nM

SMILES: N#CCCCCC#Cc1nc(N)c2ncn([C@@H]3O[C@H](CO)[C@@H](O)[C@H]3O)c2n1
- Ki (Adenosine receptor A2a [1]): 49.3 nM

Now from value to compound:

- Ki (Adenosine receptor A2a [1]): 31.8 nM
SMILES: CCCCCCC#Cc1nc(N)c2ncn([C@@H]3O[C@H](CO)[C@@H](O)[C@H]3O)c2n1

- IC50 [2]: 1.5 nM
- IC50 [3]: 6 nM
SMILES: NC(C(=O)Nc1ccc2cnccc2c1)c1ccccc1 (stereo not given)

- IC50 [2]: 1.1 nM
- IC50 [3]: 1.2 nM
SMILES: NCC(C(=O)Nc1ccc2cnccc2c1)c1ccccc1 (stereo not given)

- Kd (Adenosine receptor A2a [4]): 0.7 nM
SMILES: COC(=O)N1CCC(CC#Cc2nc(N)c3ncn([C@@H]4O[C@H](C(=O)NC5CC5)[C@@H](O)[C@H]4O)c3n2)CC1 [EVODENOSON]

- IC50 [5]: 3 nM
SMILES: CN(C)CCOc1cc(-c2cn[nH]c2)ccc1NC(=O)C1COc2ccccc2O1 (stereo not given) [SR-3677]
